Source: US20080221074A1, “Drug Screen and Treatment Method” (priority 2006, published 2008)

What was measured:
EAE = test: PLP-induced EAE, treatment from clinical onset; type: in vivo, female SJL mice; details: 0.1 mg q.d. po from clinical onset
Procedure: The protocol for conducting the EAE animal model was described in (D. Auci et. al., Ann. NY. Acad. Sci. USA, 1051:730-42, 2005). Female SJL mice (6-8 week old, average body weight of 25 g) obtained from Charles-River were kept under standard laboratory conditions (non specific pathogen germ free) with ad libitum food and water and were allowed to adapt one week to their environment before commencing the study. […] EAA was induced with 200 μL of a 1:1 emulsion of 75 μg proteolipid protein (PLP) and 6 mg/mL Mycobacterium tuberculosis H37RA in complete Freund's adjuvant (CFA). The 200 μL injection was divided among four sites that drained into the auxiliary and inguinal lymphnodes. Pertussis toxin was used as a co-adjuvant and was administered i.p. at 200 ng/mouse on day zero and day two post immunization. Groups were treated with 0.1 mg of compound in 100 μL vehicle, or with vehicle alone, q.d. po (oral gavage) starting at clinical onset of disease and continuing through to day 30 post immunization. […] Clinical grading was carried out by an observer unaware of the treatment: 0=no illness, 1=flaccid tail, 2=moderate paraparesis, 3=severe paraparesis, 4=moribund state, 5=death.

[1] = system: human MG-63 osteosarcoma cell line; test: reversal of dexamethasone effects in MG-63 osteoblasts; type: cell-based; details: 30 nM dexamethasone; compound concentration stated with each value (17α-ethynyl triol: 1 nM)
[2] = degree of sulfation and glucuronidation (other protocols); type: in vitro ADME; details: compared to diols
Description: Despite that, the compound androst-5-ene-3β,7β,16α,17β-tetrol was active as described above when administered orally to mice in a diabetes treatment model. […] This activity may have arisen at least partly from the low metabolism of tetrol compounds in vivo.

[3] = system: osteoblasts and osteocytes; test: osteoblast and osteocyte apoptosis in vertebral bone of ovariectomized mice (TUNEL); type: in vivo, Swiss Webster mice
Description: The degree of apoptosis of osteoblasts and osteocytes in murine vertebral bone as a function of estrogen deficiency was examined. Swiss Webster mice (four months old) were ovariectomized. Twenty-eight days later, the animals were sacrificed, vertebrae were isolated, fixed and embedded, and then undecalcified in methacrylate.

[4] = system: LPS-induced acute lung inflammation; test: LPS-induced lung injury; type: in vivo, C57/BL6 mice; details: 40 mg/Kg orally; 48 h after LPS
[5] = system: insulin sensitivity in db/db diabetic mice; test: hyperinsulinemic-euglycemic clamp; type: in vivo
Procedure: Glucose lowering in 8 week old db/db diabetic mice. The hyperinsulinemic-euglycemic clamp protocol was conducted to measure insulin sensitivity in vivo. In this procedure, insulin was administered to raise the insulin concentration while glucose was infused to maintain euglycemia or a fixed, normal blood glucose level (about 180 mg/dL). […] The objective of this protocol was to investigate characterize the capacity of 17α-ethynylandrost-5-ene-3β,7β,17β-triol and androst-5-ene-3β,7β,16α,17β-tetrol to ameliorate systemic insulin resistance and improve whole body glucose disposal in the hyperinsulinemic-euglycemic clamp model. The degree of skeletal muscle and hepatic insulin sensitivity and tissue specific glucose uptake were also assessed. The animals were dosed daily by oral gavage for 14 days. On Day 10 of treatment catheters were implanted in the carotid artery and jugular vein. On the day of the clamp (day 14) the compound was administered at 7:30 am.
Body weight and glucose concentration were assessed on day 0, 7 and day 14 of treatment. On day 14 a euglycemic hyperinsulinemic clamp was performed. Food was removed at 7:30 am at 10:30 a primed continuous infusion of [3-^3H]-glucose (0.05 μCi/min). A baseline blood sample was taken at 12:50 (−10 min) and at 1:00 (0 min) a euglycemic hyperinsulinemic clamp was initiated by administering 10 mU /kg/min of insulin. Glucose was infused at a variable rate to clamp the glucose concentration at ˜180 mg/dl. A bolus of [^14C]-2deoxyglucose was given at the end of the study to assess tissue specific glucose uptake. Plasma ^14C 2-deoxyglucose was assessed at 122, 125, 130, 135, 145 min. […]
Analysis was conducted as follows. Plasma samples were deproteinized with Ba(OH)2 (0.3 N) and ZnSO4 (0.3 N), dried and radioactivity was assessed on scintillation counter (Packard TRICARB 2900 TR, Meriden, Conn.). […] One supernatant was directly counted to determine radioactivity from both [14C] […] A second aliquot was treated with Ba(OH)2 and ZnSO4 to remove ^14C DGP and any tracer incorporated into glycogen and then counted to determine radioactivity from free [^14C]DG(2). [^14C]DGP was calculated as the difference between the two aliquots. […] Rg, an index of tissue specific glucose uptake was calculated as previously described (E.W. Kraegen et al., Am. J. Physiol., 248:E353-E362, 1985). Whole body glucose turnover was calculated as the ratio of the ^3H glucose infusion rate (dpm/kg/min) and arterial plasma glucose specific activity (dpm/mg). Endogenous glucose production was calculated as the difference between the whole body glucose turnover and the exogenous glucose infusion rate (R. N. Bergman et al., Endocr. Rev., 6:45-86, 1985).

estrogen receptor-α = estrogen receptor-α (Homo sapiens, UniProt P03372); test: interaction with sex hormone receptor; type: binding
estrogen receptor-α, sequence (P03372 whole entry): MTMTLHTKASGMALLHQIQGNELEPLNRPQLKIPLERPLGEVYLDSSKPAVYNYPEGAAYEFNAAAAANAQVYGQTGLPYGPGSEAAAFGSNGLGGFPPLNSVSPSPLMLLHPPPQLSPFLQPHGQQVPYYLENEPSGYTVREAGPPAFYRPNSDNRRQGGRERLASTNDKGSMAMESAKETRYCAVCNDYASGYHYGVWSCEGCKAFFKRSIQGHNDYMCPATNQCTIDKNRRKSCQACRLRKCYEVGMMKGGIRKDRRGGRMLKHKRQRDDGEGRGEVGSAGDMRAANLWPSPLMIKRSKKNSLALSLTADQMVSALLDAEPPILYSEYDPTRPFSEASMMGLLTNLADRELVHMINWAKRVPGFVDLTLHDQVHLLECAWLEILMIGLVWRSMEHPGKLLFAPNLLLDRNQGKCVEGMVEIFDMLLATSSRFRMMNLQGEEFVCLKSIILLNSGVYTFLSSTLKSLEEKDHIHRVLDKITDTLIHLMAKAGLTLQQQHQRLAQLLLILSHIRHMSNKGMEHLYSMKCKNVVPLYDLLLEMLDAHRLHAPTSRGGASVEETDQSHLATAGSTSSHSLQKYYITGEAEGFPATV

estrogen receptor-β = estrogen receptor-β (Homo sapiens, UniProt Q92731); test: interaction with sex hormone receptor; type: binding
estrogen receptor-β, sequence (Q92731 whole entry, species assumed): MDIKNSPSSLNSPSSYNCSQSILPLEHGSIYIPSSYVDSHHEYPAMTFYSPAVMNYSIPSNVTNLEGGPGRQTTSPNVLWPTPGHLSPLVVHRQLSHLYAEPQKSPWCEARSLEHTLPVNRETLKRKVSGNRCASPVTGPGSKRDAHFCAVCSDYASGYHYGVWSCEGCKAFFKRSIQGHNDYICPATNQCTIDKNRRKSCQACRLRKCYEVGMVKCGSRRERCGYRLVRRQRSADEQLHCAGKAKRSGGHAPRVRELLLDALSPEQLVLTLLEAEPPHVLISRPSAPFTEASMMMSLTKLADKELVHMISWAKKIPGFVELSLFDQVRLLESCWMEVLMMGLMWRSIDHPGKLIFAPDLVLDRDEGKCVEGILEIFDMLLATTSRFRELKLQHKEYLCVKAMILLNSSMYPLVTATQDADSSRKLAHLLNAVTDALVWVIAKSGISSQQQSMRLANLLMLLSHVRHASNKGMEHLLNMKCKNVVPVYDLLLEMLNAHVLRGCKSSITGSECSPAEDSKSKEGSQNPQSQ

[6] = system: bone marrow-derived mast cells (BMMC); test: mast cell stimulus-coupled degranulation (β-glucuronidase release); type: cell-based, Balb/C mice; details: no stimulus
Procedure: In another protocol, a population of mast cells was cultivated from murine bone marrow as follows. Briefly, bone marrows from Balb/C mice were flushed from the femur using PBS and a 27 g needle. The cells were cultured in a mixture of ⅔ RPMI-1640 with 19% FBS and cells that secreted IL-3. The bone marrow cells were allowed to differentiate for 18-25 days in the IL-3-containing mixture before being used for experiments. Bone marrow cells cultured in this manner have a phenotype similar to mucosal mast cells and are referred to as bone marrow-derived mast cells (BMMC).
The homogeneity of the in vitro propagated mast cells was checked by conventional flow cytometry techniques and staining for cell-type specific markers. Between days 14 and 21 of propagation, mature mast cells were harvested and prepared for the test cultures. The objective was to assess of the effect of compounds such as dehydroepiandrosterone on mast cell stimulus-coupled degranulation. Prepared mast cells were dispensed into test culture wells at a density of 1×10^7 cells/mL. In control cultures, mast cells were induced to degranulate after cross linking of IgE receptors with IgE antigen-antibody complexes. […] There was no detectable degranulation of mast cells as measured by release of β-glucuronidase from cytosolic storage granules of the cells in the absence of the stimulus. […]

C[C@]12CC[C@H]3[C@@H]([C@@H](O)C=C4C[C@H](O)CC[C@@]43C)[C@@H]1C[C@@H](O)[C@@H]2O [androst-5-ene-3α,7β,16α,17β-tetrol]
course of EAE compared to vehicle-treated mice (EAE): very similar to that observed in the vehicle-treated mice | reversal of the decrease in osteoprotegerin synthesis [1]: normal osteoprotegerin levels at 10 nM | degree of sulfation and degree of glucuronidation [2]: low

C[C@]12CC[C@H]3[C@@H](CCC4=C[C@H](O)CC[C@@H]43)[C@@H]1CC[C@@H]2O [4-estrene-3α,17β-diol]
osteoblast and osteocyte apoptosis [3]: reduce apoptosis

C[C@]12CC[C@H]3[C@@H]([C@@H](O)C=C4C[C@@H](O)CC[C@@]43C)[C@@H]1C[C@@H](O)[C@@H]2O [androst-5-ene-3β,7β,16α,17β-tetrol]
IL-6 level in BAL vs vehicle [4]: reduced levels | MPO level vs vehicle [4]: reduced levels | TNFα level in BAL vs vehicle [4]: reduced levels | glucose uptake in the gastrocnemius muscle ([5]; ^14C-2-deoxyglucose, p<0.05): more effective | glucose infusion rate compared to vehicle control ([5]; oral gavage 14 days, insulin 10 mU/kg/min): increased the glucose infusion rate | course of EAE compared to vehicle-treated mice (EAE): significantly improved course of EAE | reversal of the decrease in osteoprotegerin synthesis [1]: normal osteoprotegerin levels at 0.1 μM | interaction with estrogen receptor-α (estrogen receptor-α): do not interact | interaction with estrogen receptor-β (estrogen receptor-β): do not interact | degree of sulfation and degree of glucuronidation [2]: low

C[C@]12CC[C@H](O)CC1=CC[C@@H]1[C@@H]2CC[C@]2(C)C(=O)CC[C@@H]12 [dehydroepiandrosterone]
degranulation with compound alone [6]: no measurable degranulation
